Earlier results in PubChem BioAssay AID1259409 (Chemical Carcinogenesis Research Information System (CCRIS), 2018).

System: rodent chemically induced tumor inhibition, incidence and multiplicity
Assay: CCRIS tumor inhibitor studies

Q: What does the source list for `CC1=C(/C=C/C(C)=C/C=C/C(C)=C/C=C/C=C(C)/C=C/C=C(C)/C=C/C2=C(C)CCCC2(C)C)C(C)(C)CCC1`?
A: tumour outcome (control, treated, inhibition, significance) (Carcinogen: 7,12-DIMETHYLBENZ[A]ANTHRACENE, 57-97-6, Dose [Inhibitor]: 0, 400 NMOL IN 200 µL ACETONE 2/WK BEGINNING 1 WK POST CARCINOGEN DOSE APPLIED SIMULTANEOUSLY WITH PROMOTER FOR 20 WK (S, Route [Inhibitor]: DERMAL, Species: MOUSE, Strain/Sex: ICR/?, Target Tissue: Type of Lesion: SKIN: PAPILLOMA, Dose [Carcinogen]: 100 UG ONCE, Promoter: 12-O-TETRADECANOYLPHORBOL-13-ACETATE, 16561-29-8): 69%, 25%, 64%, not calculated; tumour outcome (control, treated, inhibition, significance) (Carcinogen: 7,12-DIMETHYLBENZ[A]ANTHRACENE, 57-97-6, Dose [Inhibitor]: 0, 1430 IU/KG IN 100 µL PEANUT OIL 5 D/WK BEGINNING 1 WK POST CARCINOGEN DOSE AND CONTINUING FOR DURATION OF STUDY (STUD, Route [Inhibitor]: GAVAGE, Species: MOUSE, Strain/Sex: HRA/SKH/FEMALE, Target Tissue: Type of Lesion: SKIN: CARCINOMA, Dose [Carcinogen]: 10 NMOL IN 50 µL ACETONE ONCE): 7/25 (28%), 8/37 (22%), 21%, not calculated; outcome (Carcinogen: 7,12-DIMETHYLBENZ[A]ANTHRACENE, 57-97-6, Dose [Inhibitor]: 0, 1430 IU/KG IN 100 µL PEANUT OIL 5 D/WK BEGINNING 1 WK POST CARCINOGEN DOSE AND CONTINUING FOR DURATION OF STUDY (STUD, Route [Inhibitor]: GAVAGE, Species: MOUSE, Strain/Sex: HRA/SKH/FEMALE, Target Tissue: Type of Lesion: SKIN: PAPILLOMA, Dose [Carcinogen]: 10 NMOL IN 50 µL ACETONE ONCE): 97%, 77%, 21%, not calculated at 20 wk; 68%, 52%, 24%, not calculated at 40 wk; tumour outcome (control, treated, inhibition, significance) (Carcinogen: 7,12-DIMETHYLBENZ[A]ANTHRACENE, 57-97-6, Dose [Inhibitor]: 140 UG (1.5 MG/KG BW) IN 0.4 ML MINERAL OIL 3/WK FOR 28 WK (STUDY DURATION: 28 WK), Route [Inhibitor]: ORAL, Species: HAMSTER, Strain/Sex: SYRIAN/MALE, Target Tissue: Type of Lesion: SKIN: CARCINOMA, Dose [Carcinogen]: 0.1% IN HEAVY MINERAL OIL APPLIED TO BUCCAL POUCH 3/WK FOR 28 WK, Promoter: NONE USED): 20/20 (100%), 11/20 (55%), 45%, not calculated; tumour outcome (control, treated, inhibition, significance) (Carcinogen: 7,12-DIMETHYLBENZ[A]ANTHRACENE, 57-97-6, Dose [Inhibitor]: 250 MG/KG IN DIET BEGINNING 6 WK PRIOR TO CARCINOGEN DOSE AND CONTINUING FOR 21-22 WK POST CARCINOGEN DOSE (STUDY DURATI, Route [Inhibitor]: ORAL, Species: RAT, Strain/Sex: SPRAGUE-DAWLEY/MALE, Target Tissue: Type of Lesion: SALIVARY GLAND: TUMOR, Dose [Carcinogen]: 1 MG IN 20 µL OLIVE OIL INJECTED INTO SUBMANDIBULAR GLAND ONCE, Promoter: NONE USED): 20/28 (71%), 20/30 (67%), 6%, not significant; tumour outcome (control, treated, inhibition, significance) (Carcinogen: BENZO[A]PYRENE, 50-32-8, Dose [Inhibitor]: 0, 0.5 G/G OF DIET FOR 6 WK (STUDY DURATION: 9 WK), Route [Inhibitor]: ORAL, Species: MOUSE, Strain/Sex: NIGP(S)/FEMALE, Target Tissue: Type of Lesion: LUNG: ADENOMA, Dose [Carcinogen]: 0.5 MG INJECTED IN THE SCAPULAR REGION OF NEWBORN MICE ONCE, Promoter: NONE USED): 56%, 38%, 32%, not calculated; tumour outcome (control, treated, inhibition, significance) (Carcinogen: BENZO[A]PYRENE, 50-32-8, Dose [Inhibitor]: 0, 0.5 G/G OF DIET FOR 6 WK (STUDY DURATION: 9 WK), Route [Inhibitor]: ORAL, Species: MOUSE, Strain/Sex: NIGP(S)/MALE, Target Tissue: Type of Lesion: LUNG: ADENOMA, Dose [Carcinogen]: 0.5 MG INJECTED IN THE SCAPULAR REGION OF NEWBORN MICE ONCE, Promoter: NONE USED): 37%, 38%, -3%, not calculated; tumour outcome (control, treated, inhibition, significance) (Carcinogen: BENZO[A]PYRENE, 50-32-8, Dose [Inhibitor]: 0, 4.7 MICROMOLAR/D IN 0.1 ML PEANUT OIL BEGINNING 2 WK PRIOR TO CARCINOGEN TREATMENT AND CONTINUING TO 2 WK POST CARCIN, Route [Inhibitor]: GAVAGE, Species: MOUSE, Strain/Sex: SWISS/FEMALE, Target Tissue: Type of Lesion: FORESTOMACH: TUMOR, Dose [Carcinogen]: 1 MG 2/WK IN 0.1 ML PEANUT OIL FOR 4 WK, Promoter: NONE USED): 20/20 (100%), 3/20 (15%), 85%, p<0.001; tumour outcome (control, treated, inhibition, significance) (Carcinogen: BENZO[A]PYRENE, 50-32-8, Dose [Inhibitor]: 2.5 MG/D IN DIET FOLLOWED 1 MO LATER BY 25 MG/0.250 KG BW BY GAVAGE 2/WK 2 HR PRIOR TO CARCINOGEN DOSE (STUDY DURATION:, Route [Inhibitor]: ORAL, GAVAGE, Species: MOUSE, Strain/Sex: SWISS/FEMALE, Target Tissue: Type of Lesion: SKIN: PAPILLOMA, SQUAMOUS EPITHELIOMA, Dose [Carcinogen]: 100 UG IN ACETONE 2/WK BEGINNING 1 MO AFTER AGENT DOSE AND CONTINUING FOR DURATION OF STUDY, Promoter: NONE USED): @65%, @55%, 15%, p<0.05; tumour outcome (control, treated, inhibition, significance) (Carcinogen: BENZO[A]PYRENE, 50-32-8, UV IRRADIATION, Carcinogen: BENZO[A]PYRENE, 50-32-8, UV IRRADIATION, Dose [Inhibitor]: 2.5 MG/D IN DIET FOLLOWED 1 MO LATER BY 25 MG/0.250 KG BW BY GAVAGE 2/WK GIVEN 2 HR PRIOR TO CARCINOGEN DOSE (STUDY DURA, Route [Inhibitor]: ORAL, GAVAGE, Species: MOUSE, Strain/Sex: SWISS/FEMALE, Target Tissue: Type of Lesion: SKIN: PAPILLOMA, SQUAMOUS EPITHELIOMA, Dose [Carcinogen]: 100 UG IN ACETONE 2/WK BEGINNING 1 MO AFTER AGENT DOSE AND CONTINUING FOR DURATION OF STUDY PLUS UV IRRADIATION (5890 ER, Promoter: NONE USED): @93%, @40%, @57%, not calculated; tumour outcome (control, treated, inhibition, significance) (Carcinogen: DIESEL EXHAUST PARTICLES, Dose [Inhibitor]: 0, 0.02% IN BASAL DIET FOR DURATION FO STUDY (STUDY DURATION: 12 MO), Route [Inhibitor]: ORAL, Species: MOUSE, Strain/Sex: ICR/MALE, Target Tissue: Type of Lesion: LYMPHATIC SYSTEM: LYMPHOMA, Dose [Carcinogen]: 0.2 MG 1/WK FOR 10 WK, Promoter: NONE USED): 6/29 (21%), 5/30 (17%), 20%, not calculated; tumour outcome (control, treated, inhibition, significance) (Carcinogen: DIESEL EXHAUST PARTICLES, Dose [Inhibitor]: 0, 0.02% IN BASAL DIET FOR DURATION OF STUDY (STUDY DURATION: 12 MO), Route [Inhibitor]: ORAL, Species: MOUSE, Strain/Sex: ICR/ MALE, Target Tissue: Type of Lesion: LYMPHATIC SYSTEM: LYMPHOMA, Dose [Carcinogen]: 0.1 MG 1/WK FOR 10 WK, Promoter: NONE USED): 3/29 (10%), 2/30 (7%), 30%, not calculated; tumour outcome (control, treated, inhibition, significance) (Carcinogen: DIESEL EXHAUST PARTICLES, Dose [Inhibitor]: 0, 0.02% IN BASAL DIET FOR DURATION OF STUDY (STUDY DURATION: 12 MO), Route [Inhibitor]: ORAL, Species: MOUSE, Strain/Sex: ICR/MALE, Target Tissue: Type of Lesion: LUNG: TUMOR, Dose [Carcinogen]: 0.05 MG 1/WK FOR 10 WK, Promoter: NONE USED): 9/30 (30%), 6/30 (20%), 33%, not calculated; tumour outcome (control, treated, inhibition, significance) (Carcinogen: DIESEL EXHAUST PARTICLES, Dose [Inhibitor]: 0, 0.02% IN BASAL DIET FOR DURATION OF STUDY (STUDY DURATION: 12 MO), Route [Inhibitor]: ORAL, Species: MOUSE, Strain/Sex: ICR/MALE, Target Tissue: Type of Lesion: LUNG: TUMOR, Dose [Carcinogen]: 0.1 MG 1/WK FOR 10 WK, Promoter: NONE USED): 9/29 (31%), 10/30 (33%), -6%, not calculated; tumour outcome (control, treated, inhibition, significance) (Carcinogen: DIESEL EXHAUST PARTICLES, Dose [Inhibitor]: 0, 0.02% IN BASAL DIET FOR DURATION OF STUDY (STUDY DURATION: 12 MO), Route [Inhibitor]: ORAL, Species: MOUSE, Strain/Sex: ICR/MALE, Target Tissue: Type of Lesion: LUNG:TUMOR, Dose [Carcinogen]: 0.2 MG 1/WK FOR 10 WK, Promoter: NONE USED): 7/29 (24%), 8/30 (27%), -13%, not calculated; tumour outcome (control, treated, inhibition, significance) (Carcinogen: DIESEL EXHAUST PARTICLES, Dose [Inhibitor]: 0, 0.02% IN BASAL DIET FOR DURATION OF STUDY (STUDY DURATION: 12 MO), Route [Inhibitor]: ORAL, Species: MOUSE, Strain/Sex: ICR/MALE, Target Tissue: Type of Lesion: LYMPHATIC SYSTEM: LYMPHOMA, Dose [Carcinogen]: 0.05 MG 1/WK FOR 10 WK, Promoter: NONE USED): 3/30 (10%), 4/30 (13%), -30%, not calculated; tumour outcome (control, treated, inhibition, significance) (Carcinogen: DIESEL EXHAUST PARTICLES, Dose [Inhibitor]: 0, 0.02% IN HIGH FAT DIET FOR DURATION OF STUDY (STUDY DRUATION : 12 MO), Route [Inhibitor]: ORAL, Species: MOUSE, Strain/Sex: ICR/MALE, Target Tissue: Type of Lesion: LYMPHATIC SYSTEM: LYMPHOMA, Dose [Carcinogen]: 0.05 MG 1/WK FOR 10 WK, Promoter: NONE USED): 5/30 (17%), 5/30 (17%), 0%, not significant; tumour outcome (control, treated, inhibition, significance) (Carcinogen: DIESEL EXHAUST PARTICLES, Dose [Inhibitor]: 0, 0.02% IN HIGH FAT DIET FOR DURATION OF STUDY (STUDY DURATION: 12 MO), Route [Inhibitor]: ORAL, Species: MOUSE, Strain/Sex: ICR/MALE, Target Tissue: Type of Lesion: LUNG: TUMOR, Dose [Carcinogen]: 0.05 MG 1/WK FOR 10 WK, Promoter: NONE USED): 12/30 (40%), 9/30 (30%), 25%, not calculated
